# Experimental data as given in patent US20240293557A1, “PROTEOLYSIS TARGETING CHIMERAS AND METHODS OF USE THEREOF” (University of Maryland, Baltimore, priority 2021, published 2024).
# “Also recorded” adds a separate entry of the source. Where two headings read alike, the source gives them in different places.
# Assays:
# CDK9 = CDK9 (Homo sapiens (Human), UniProt P50750); assay: CDK9 activity assay (Nanosyn microfluidics mobility shift platform); assay type: biochemical
# Protocol: CDK9 activity assays were performed by Nanosyn using a microfluidics mobility shift platform. In this assay, a fluorescently labeled substrate is incubated with the enzyme in the presence of test compounds. Samples are run through microfluidic chips, separating them based on differences in charge; this separates the more positive substrate from the more negative product. Enzyme activity is measured through comparison of the fluorescence from substrate and product peaks.
# MOLM14 cells = assay: alamarBlue cell viability assay of MOLM14 cells; assay type: cell-based; details: Homo sapiens, MOLM-14
# Protocol: In vitro evaluations. All 36 PROTACs are evaluated in the relevant kinase assays, and those with Ki values >10-fold weaker than the parent drug are not advanced further. […] Next, the IC50s of lead indirect MCL-1 PROTACs are determined by alamarBlue cell viability assays of four human AML cell lines.
# Both MOLM14 and MV4;11 AML cell lines are relatively sensitive to VEN in vitro; harbor a FLT3-ITD mutation plus an MLL rearrangement, two relatively common poor-prognosis AML mutations (both cells lines also contain additional mutations); and are dependent on MCL-1 and BCL-2, and express relatively high levels of both. In addition, both MOLM14 and MV4;11 are sensitive to CDK9 inhibitors, PI3K/mTOR inhibitors and MEK inhibitors. […] Three repeats of each IC50 determination assay are performed for each compound against each of these four AML cell lines. Multiple compounds are tested against all four AML cell lines at once, using alamarBlue microplate assays previously described. Specifically, cell lines are treated with vehicle (negative control), PROTAC alone, parent (non-PROTAC) drug alone, VEN alone, the combination of parent drug+VEN, and the combination of PROTAC+VEN, each at multiple concentrations, and IC50s in the AML cell lines determined. […] Western blotting is conducted after treatment of cells with the active PROTACs to determine if dose-dependent reduction of MCL-1 and CDK9 or PI3K/mTOR or MEK proteins is observed.
# Cell viability of MOLM14 cells was measured in presence of test compounds via alamarBlue assay. This is a colorimetric assay that uses resazurin, a reduction-oxidation indicator. After incubation, resazurin is added to the test wells. The reduced form of resazurin is resorufin, which is pink and highly fluorescent. This can be measured through absorbance or fluorescence and is proportional to the amount of living cells.
# [1] = system: Luc-labelled MOLM14 AML cells; assay: Luc-labelled MOLM14 AML xenograft in NRG mice, venetoclax monotherapy or combinations; assay type: in vivo, mouse; details: MOLM14 AML-bearing NRG mice; for AML burden (fold-change total body luminescence vs d0): two 5 d treatment cycles (d1-5, d21-25), imaging d7/d14/d21, vs vehicle
# Protocol: Next, these two compounds are tested at their MTD(s) in a 5 d schedule that utilized to evaluate VEN-based combinations against a luciferase (Luc)-labelled MOLM14 human AML cell line xenograft model. NRG mice are infused with Luc-labelled MOLM14 AML cells on day -10. After Xenogen quantification of baseline total body luminescence on d0, mice are placed into experimental groups balanced for AML burden. Each experiment to evaluate the two selected indirect MCL-1 PROTACs in vivo involves 10 groups of 5 MOLM14 AML-bearing mice treated with: (1) vehicle, (2-3) lead PROTACs, (4-5) corresponding parent drugs, (6) VEN, (7-8) corresponding parent drugs+VEN and (9-10) lead PROTACs+VEN. […] and VEN are administered at the same molar concentration as the novel PROTACs; additional control groups are needed if the MTDs of the two PROTACs differ. MOLM14 AML-bearing NRG mice are dosed daily PO on dl-5 and d21-25, assessed for AML burden by Xenogen imaging on d7, d14, and d21, and monitored until clinical signs dictate need for euthanasia (projected average 10 weeks). Primary response endpoints are AML response quantitation (fold-change in AML burden on d7/14/21 vs d0 for each mouse) via imaging. Comparisons of quantitative imaging results are confirmed by Kaplan-Meier survival analyses. In addition, the two selected PROTACs are similarly tested against a Luc-labelled MV4;11 cell line xenograft model. […]
# Thus, the proposed sample size (5 mice/group) is expected to provide sufficient power for statistical analyses (at p<0.05 level; α=0.05, β=0.1), which is estimated with the standard deviation of AML burden over time monitored and the expected drug efficacy differences. […] AML burden is quantified using log transformed ratio of luminescence at d7/14/21 vs d0 for each mouse (fold-change); groups are compared using the appropriate parametric (ANOVA; t-test, etc) or non-parametric alternative as necessary (Wilcoxon rank sum, Kruskal-Wallis). […]
# Two of the parent drug candidates are synthesized but the syntheses are published and short. […] The indirect MCL-1 PROTAC candidates are evaluated in the kinase assays as they are synthesized. […] On d0, after Xenogen quantification of baseline total body luminescence (AML burden), groups of 5 AML-bearing mice were treated on days 1-5, per a previously established MTD POx5d schedule, with VEN (150 mg/kg/d POx5), as monotherapy or co-administered with SOR (30 mg/kg/d POx5), ART (50 mg/kg/d POx5), and/or ASP (2001U/kg IP single dose). […] On d7, d14 and d21, each mouse was Xenogen imaged for total body luminescence, fold-change AML burden from d0 was calculated for each mouse, and mean (+/−SD) fold-change for each experimental group plotted. […]
# [2] = system: MOLM14 MCL1 OE cloned cell lines; assay: 48 h alamarBlue cell viability assay of MOLM14 MCL1 OE cloned cell lines; assay type: cell-based, human; details: MOLM14 MCL1 OE cloned cell lines vs control cell lines
# Source text: Method: OLM14 AML cell were lentivirally transduced to overexpress MCL1. […] MOLM14 AML cells were transduced with lentiviral expression vector (LV) pWCC43 backbone containing EF1a—driven GFP and Ubiquitin (Ub)-driven MCL1, or control empty LV without MCL1, or control LV containing Luc in place of MCL1, and then single-cell subcloned.
# [3] = MOLM14, 48 hr, read-out: Cell Viability (MOLM14 IC50-nM) 48 hr
# [4] = MOLM14, 72 hr, read-out: Cell Viability (MOLM14 IC50-nM) 72 hr
# CDK9, sequence (P50750 whole entry): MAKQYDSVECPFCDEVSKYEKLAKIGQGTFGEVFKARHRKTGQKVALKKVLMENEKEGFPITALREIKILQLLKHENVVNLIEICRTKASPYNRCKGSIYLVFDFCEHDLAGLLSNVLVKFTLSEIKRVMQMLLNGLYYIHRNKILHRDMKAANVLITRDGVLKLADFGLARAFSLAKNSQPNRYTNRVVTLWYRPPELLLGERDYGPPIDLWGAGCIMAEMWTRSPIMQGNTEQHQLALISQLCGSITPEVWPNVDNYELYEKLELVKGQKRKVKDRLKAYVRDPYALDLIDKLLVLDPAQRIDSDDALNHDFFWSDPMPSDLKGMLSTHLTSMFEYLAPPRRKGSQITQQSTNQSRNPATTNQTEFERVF
# CDK9, sequence (O60563 whole entry partner): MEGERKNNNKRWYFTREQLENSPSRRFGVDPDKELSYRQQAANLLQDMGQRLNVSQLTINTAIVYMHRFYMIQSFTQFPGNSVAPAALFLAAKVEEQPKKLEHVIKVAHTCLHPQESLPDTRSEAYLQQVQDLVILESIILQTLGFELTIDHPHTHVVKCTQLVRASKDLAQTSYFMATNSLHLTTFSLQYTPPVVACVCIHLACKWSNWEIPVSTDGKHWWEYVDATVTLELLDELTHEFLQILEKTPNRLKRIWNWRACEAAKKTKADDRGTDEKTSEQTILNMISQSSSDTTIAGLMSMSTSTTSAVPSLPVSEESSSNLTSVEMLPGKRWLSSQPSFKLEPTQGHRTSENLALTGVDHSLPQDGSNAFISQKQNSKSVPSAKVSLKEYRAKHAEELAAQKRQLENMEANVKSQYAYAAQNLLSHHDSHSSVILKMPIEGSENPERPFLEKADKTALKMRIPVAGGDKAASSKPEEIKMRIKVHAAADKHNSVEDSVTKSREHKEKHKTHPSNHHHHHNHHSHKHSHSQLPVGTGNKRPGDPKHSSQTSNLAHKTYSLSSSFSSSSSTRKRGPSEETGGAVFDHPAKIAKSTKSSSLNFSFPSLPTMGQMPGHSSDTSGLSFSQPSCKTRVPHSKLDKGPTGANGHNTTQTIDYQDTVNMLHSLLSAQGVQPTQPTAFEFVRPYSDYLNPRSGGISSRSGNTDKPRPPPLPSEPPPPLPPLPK
Compound,IC50 (CDK9) [nM],IC50 (MOLM14 cells; [3]) [nM],IC50 (MOLM14 cells; [4]) [nM],AML burden (fold-change total body luminescence vs d0) [1],Sensitivity of MCL-1 overexpressing MOLM14 clones compared to control cell lines [2],"Kaplan-Meier survival ([1]; two 5 d treatment cycles, survival to d84, vs vehicle or monotherapy)"
O=C(COc1cccc2c1C(=O)N(C1CCC(=O)NC1=O)C2=O)NCCOCCOCCNC(=O)CN1CCC(NC(=O)c2n[nH]cc2NC(=O)c2c(Cl)cccc2Cl)CC1 (centres unmarked) [CG-3-067],3.89,4320,7150,–,–,–
"CNC(=O)c1cc(Oc2ccc(NC(=O)Nc3ccc(Cl)c(C(F)(F)F)c3)cc2)ccn1 [SOR, Sorafenib]",–,–,–,reduced AML burden only moderately; also recorded: significant difference in AML burden only at d7 and d14,–,–
O=C1CCC(N2C(=O)c3cccc(OCC(=O)N4CCC(NC(=O)CN5CCC(NC(=O)c6n[nH]cc6NC(=O)c6c(Cl)cccc6Cl)CC5)CC4)c3C2=O)C(=O)N1 (centres unmarked) [AMC-3-106],3.04,6070,8170,–,–,–
CC(C)(C)OC(=O)CN1CCC(NC(=O)c2n[nH]cc2NC(=O)c2c(Cl)cccc2Cl)CC1 [AMC-3-086],11,1560,1590,–,–,–
O=C(COc1cccc2c1C(=O)N(C1CCC(=O)NC1=O)C2=O)NCCCCCCC(=O)N1CCC(NC(=O)c2n[nH]cc2NC(=O)c2c(Cl)cccc2Cl)CC1 (centres unmarked) [CG-3-071],2.85,1710,1910,–,–,–
O=C1CCC(N2C(=O)c3cccc(OCC(=O)N4CCC(C(=O)N5CCC(NC(=O)c6n[nH]cc6NC(=O)c6c(Cl)cccc6Cl)CC5)CC4)c3C2=O)C(=O)N1 (centres unmarked) [SF-8-140],1.66,3000,1820,–,–,–
CC(C)(C)OC(=O)N1CCC(NC(=O)c2n[nH]cc2NC(=O)c2c(Cl)cccc2Cl)CC1 [AMC-3-095],11.3,1680,2010,–,–,–
O=C(COc1cccc2c1C(=O)N(C1CCC(=O)NC1=O)C2=O)NCCOCCNC(=O)CN1CCC(NC(=O)c2n[nH]cc2NC(=O)c2c(Cl)cccc2Cl)CC1 (centres unmarked) [CG-3-066],3.32,1970,1690,–,–,–
O=C(CNC(=O)COc1cccc2c1C(=O)N(C1CCC(=O)NC1=O)C2=O)NCCCCCCC(=O)N1CCC(NC(=O)c2n[nH]cc2NC(=O)c2c(Cl)cccc2Cl)CC1 (centres unmarked) [SF-8-141],4.49,–,–,–,–,–
O=C(COc1cccc2c1C(=O)N(C1CCC(=O)NC1=O)C2=O)NCCC(=O)N1CCC(NC(=O)c2n[nH]cc2NC(=O)c2c(Cl)cccc2Cl)CC1 (centres unmarked) [AMC-3-104],2.82,–,–,–,–,–
"O=C(NC1CCNCC1)c1n[nH]cc1NC(=O)c1c(Cl)cccc1Cl [AMC-3-098, N-(4-Piperidinyl)-4-(2,6-dichlorobenzoylamino)-1H-pyrazole-3-carboxamide, reference compound]",–,178,460,–,–,–
O=C(COc1cccc2c1C(=O)N(C1CCC(=O)NC1=O)C2=O)NCCNC(=O)CN1CCC(NC(=O)c2n[nH]cc2NC(=O)c2c(Cl)cccc2Cl)CC1 (centres unmarked) [AMC-3-097],3.96,–,–,–,–,–
Cc1c(-c2c(-c3ccc(F)o3)sc3ncnc(O[C@H](Cc4ccccc4OCc4ccnn4CC(F)(F)F)C(=O)O)c23)ccc(OCCN2CCN(C)CC2)c1Cl [S63845],–,–,–,–,reduced sensitivity,–
PEGylated L-asparaginase,–,–,–,minimal activity,–,–
"CC1(C)CCC(CN2CCN(c3ccc(C(=O)NS(=O)(=O)c4ccc(NCC5CCOCC5)c([N+](=O)[O-])c4)c(Oc4cnc5[nH]ccc5c4)c3)CC2)=C(c2ccc(Cl)cc2)C1 [VEN, venetoclax]",–,–,–,no detectable effect; also recorded: minimal activity,more resistant,no detectable effect
